The results in this text go back to ChEMBL document CHEMBL5465560, “Selectivity Literature for EUbOPEN Chemogenomic Library” (2024).

Assay [1] deals with [Pyruvate dehydrogenase (acetyl-transferring)] kinase isozyme 1, mitochondrial (Homo sapiens, UniProt Q15118). The experiment in a line: Selectivity interaction (SelectScreen profiling (Invitrogen)) EUB0000607a PDK1. Particulars: at 2 µM.
The target in assay [2] is Cyclin-dependent kinase 11B (Homo sapiens) (UniProt P21127). In words: Selectivity interaction (KinomeScan (DiscoverX)) EUB0000655a CDK11B. As to conditions: at 10 µM.
Assay [3] addresses T1, Cyclin-G-associated kinase (Homo sapiens) (UniProt O14976).
T1 sequence (whole entry): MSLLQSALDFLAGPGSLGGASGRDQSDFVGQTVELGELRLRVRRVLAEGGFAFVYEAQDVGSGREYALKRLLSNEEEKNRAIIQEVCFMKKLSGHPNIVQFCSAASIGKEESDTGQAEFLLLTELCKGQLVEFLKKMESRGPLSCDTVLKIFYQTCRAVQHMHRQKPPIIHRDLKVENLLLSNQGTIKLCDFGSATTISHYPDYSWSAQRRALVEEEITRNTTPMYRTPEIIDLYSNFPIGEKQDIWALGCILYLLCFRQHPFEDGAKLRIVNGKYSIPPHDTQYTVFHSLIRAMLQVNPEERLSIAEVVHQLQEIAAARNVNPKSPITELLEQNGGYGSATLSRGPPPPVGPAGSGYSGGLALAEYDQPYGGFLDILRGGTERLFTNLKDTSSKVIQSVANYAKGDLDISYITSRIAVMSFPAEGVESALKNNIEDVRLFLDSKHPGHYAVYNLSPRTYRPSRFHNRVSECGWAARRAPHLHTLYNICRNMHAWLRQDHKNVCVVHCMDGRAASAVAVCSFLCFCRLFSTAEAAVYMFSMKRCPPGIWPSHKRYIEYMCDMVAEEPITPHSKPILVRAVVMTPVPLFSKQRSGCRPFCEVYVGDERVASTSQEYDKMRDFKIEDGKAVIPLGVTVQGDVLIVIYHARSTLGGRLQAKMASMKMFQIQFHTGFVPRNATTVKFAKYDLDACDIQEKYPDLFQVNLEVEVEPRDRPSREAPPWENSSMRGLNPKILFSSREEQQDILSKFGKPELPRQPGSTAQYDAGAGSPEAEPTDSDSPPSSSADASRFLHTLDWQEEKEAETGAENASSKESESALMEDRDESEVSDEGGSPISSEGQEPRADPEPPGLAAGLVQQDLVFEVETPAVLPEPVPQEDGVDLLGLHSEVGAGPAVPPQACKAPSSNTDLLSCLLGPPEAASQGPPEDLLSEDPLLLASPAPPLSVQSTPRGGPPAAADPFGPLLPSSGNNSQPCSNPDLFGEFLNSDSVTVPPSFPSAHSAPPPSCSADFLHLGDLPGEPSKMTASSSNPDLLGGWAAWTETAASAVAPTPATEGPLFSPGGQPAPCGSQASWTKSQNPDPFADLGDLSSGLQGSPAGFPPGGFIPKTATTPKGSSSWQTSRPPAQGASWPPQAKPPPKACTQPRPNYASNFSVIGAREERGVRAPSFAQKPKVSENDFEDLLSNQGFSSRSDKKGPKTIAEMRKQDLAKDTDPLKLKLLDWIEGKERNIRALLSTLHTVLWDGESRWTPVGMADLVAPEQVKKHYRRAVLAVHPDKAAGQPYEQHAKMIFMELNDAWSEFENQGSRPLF
The experiment in a line: Selectivity interaction (KinomeScan (DiscoverX)) EUB0000655a GAK. Particulars: at 10 µM.

The test system of assay [4] is Receptor-type tyrosine-protein kinase FLT3 (Homo sapiens), P36888 [UNDEFINED MUTATION]. The experiment in a line: Selectivity interaction (KinomeScan (DiscoverX)) EUB0000311b FLT3. As to conditions: at 1 µM.
In assay [5] the target is T2, Serine/threonine-protein kinase greatwall (Homo sapiens) (UniProt Q96GX5).
T2 sequence (whole entry): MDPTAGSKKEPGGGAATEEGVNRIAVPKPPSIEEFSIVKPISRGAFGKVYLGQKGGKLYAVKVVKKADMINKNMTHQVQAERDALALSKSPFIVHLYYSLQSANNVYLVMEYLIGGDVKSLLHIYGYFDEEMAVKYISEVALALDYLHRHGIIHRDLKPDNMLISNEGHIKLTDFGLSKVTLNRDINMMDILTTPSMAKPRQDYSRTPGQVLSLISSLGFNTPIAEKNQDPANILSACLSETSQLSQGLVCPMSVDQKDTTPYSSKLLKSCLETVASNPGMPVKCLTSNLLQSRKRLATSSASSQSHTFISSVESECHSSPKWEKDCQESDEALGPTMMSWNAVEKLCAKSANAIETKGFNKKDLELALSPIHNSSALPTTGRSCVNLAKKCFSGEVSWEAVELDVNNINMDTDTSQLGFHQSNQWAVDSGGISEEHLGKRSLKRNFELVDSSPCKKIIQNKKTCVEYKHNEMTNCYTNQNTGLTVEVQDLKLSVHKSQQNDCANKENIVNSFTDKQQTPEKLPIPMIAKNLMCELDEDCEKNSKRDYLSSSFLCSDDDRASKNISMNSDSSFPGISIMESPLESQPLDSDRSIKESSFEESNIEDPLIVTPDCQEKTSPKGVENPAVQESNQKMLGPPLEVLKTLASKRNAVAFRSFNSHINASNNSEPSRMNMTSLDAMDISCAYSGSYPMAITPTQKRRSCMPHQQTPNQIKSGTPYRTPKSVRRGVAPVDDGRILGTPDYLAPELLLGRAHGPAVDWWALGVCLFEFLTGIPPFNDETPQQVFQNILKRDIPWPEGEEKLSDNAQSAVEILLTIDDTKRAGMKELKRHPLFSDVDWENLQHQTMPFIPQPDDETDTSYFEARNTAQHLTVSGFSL
The experiment in a line: Selectivity interaction (ActivX KiNativ screen (kinase selectivity in THP-1 cell lysates)) EUB0000639a MASTL. The assay is classed as subcellular. Particulars: lysate.

Assay [6] has as its target Serine/threonine-protein kinase MRCK gamma (Homo sapiens) (UniProt Q6DT37). Particulars: at 10 µM.
The target of assay [7] is RAC-beta serine/threonine-protein kinase (Homo sapiens) (UniProt P31751). In words: Selectivity interaction (KinomeScan (DiscoverX)) EUB0000618a AKT2. As to conditions: at 10 µM.
Assay [8] has as its target Receptor tyrosine-protein kinase erbB-4 (Homo sapiens, UniProt Q15303). In words: Selectivity interaction (KinomeScan (DiscoverX)) EUB0000618a ERBB4. As to conditions: at 10 µM.
For assay [9], the target named is Serine/threonine-protein kinase OSR1 (Homo sapiens) (UniProt O95747). In words: Selectivity interaction (KinomeScan (DiscoverX)) EUB0000618a OXSR1. Particulars: at 10 µM.
Chain of Serine/threonine-protein kinase OSR1 (Homo sapiens) (O95747 2-527 limits assumed): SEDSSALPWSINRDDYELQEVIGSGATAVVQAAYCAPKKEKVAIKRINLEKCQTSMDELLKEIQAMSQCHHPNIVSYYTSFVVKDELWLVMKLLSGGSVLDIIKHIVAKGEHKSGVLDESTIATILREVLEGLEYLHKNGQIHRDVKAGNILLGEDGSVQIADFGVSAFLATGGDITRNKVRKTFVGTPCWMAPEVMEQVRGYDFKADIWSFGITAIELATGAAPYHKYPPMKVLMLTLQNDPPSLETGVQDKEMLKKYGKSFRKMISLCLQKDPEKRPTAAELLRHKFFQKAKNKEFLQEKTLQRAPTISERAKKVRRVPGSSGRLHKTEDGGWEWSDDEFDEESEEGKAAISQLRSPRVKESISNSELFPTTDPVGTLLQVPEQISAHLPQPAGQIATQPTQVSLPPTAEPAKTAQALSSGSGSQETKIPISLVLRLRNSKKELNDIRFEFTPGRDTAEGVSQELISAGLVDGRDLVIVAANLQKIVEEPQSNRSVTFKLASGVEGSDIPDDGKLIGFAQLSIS

Chain of Serine/threonine-protein kinase MRCK gamma (Homo sapiens) (Q6DT37 whole entry): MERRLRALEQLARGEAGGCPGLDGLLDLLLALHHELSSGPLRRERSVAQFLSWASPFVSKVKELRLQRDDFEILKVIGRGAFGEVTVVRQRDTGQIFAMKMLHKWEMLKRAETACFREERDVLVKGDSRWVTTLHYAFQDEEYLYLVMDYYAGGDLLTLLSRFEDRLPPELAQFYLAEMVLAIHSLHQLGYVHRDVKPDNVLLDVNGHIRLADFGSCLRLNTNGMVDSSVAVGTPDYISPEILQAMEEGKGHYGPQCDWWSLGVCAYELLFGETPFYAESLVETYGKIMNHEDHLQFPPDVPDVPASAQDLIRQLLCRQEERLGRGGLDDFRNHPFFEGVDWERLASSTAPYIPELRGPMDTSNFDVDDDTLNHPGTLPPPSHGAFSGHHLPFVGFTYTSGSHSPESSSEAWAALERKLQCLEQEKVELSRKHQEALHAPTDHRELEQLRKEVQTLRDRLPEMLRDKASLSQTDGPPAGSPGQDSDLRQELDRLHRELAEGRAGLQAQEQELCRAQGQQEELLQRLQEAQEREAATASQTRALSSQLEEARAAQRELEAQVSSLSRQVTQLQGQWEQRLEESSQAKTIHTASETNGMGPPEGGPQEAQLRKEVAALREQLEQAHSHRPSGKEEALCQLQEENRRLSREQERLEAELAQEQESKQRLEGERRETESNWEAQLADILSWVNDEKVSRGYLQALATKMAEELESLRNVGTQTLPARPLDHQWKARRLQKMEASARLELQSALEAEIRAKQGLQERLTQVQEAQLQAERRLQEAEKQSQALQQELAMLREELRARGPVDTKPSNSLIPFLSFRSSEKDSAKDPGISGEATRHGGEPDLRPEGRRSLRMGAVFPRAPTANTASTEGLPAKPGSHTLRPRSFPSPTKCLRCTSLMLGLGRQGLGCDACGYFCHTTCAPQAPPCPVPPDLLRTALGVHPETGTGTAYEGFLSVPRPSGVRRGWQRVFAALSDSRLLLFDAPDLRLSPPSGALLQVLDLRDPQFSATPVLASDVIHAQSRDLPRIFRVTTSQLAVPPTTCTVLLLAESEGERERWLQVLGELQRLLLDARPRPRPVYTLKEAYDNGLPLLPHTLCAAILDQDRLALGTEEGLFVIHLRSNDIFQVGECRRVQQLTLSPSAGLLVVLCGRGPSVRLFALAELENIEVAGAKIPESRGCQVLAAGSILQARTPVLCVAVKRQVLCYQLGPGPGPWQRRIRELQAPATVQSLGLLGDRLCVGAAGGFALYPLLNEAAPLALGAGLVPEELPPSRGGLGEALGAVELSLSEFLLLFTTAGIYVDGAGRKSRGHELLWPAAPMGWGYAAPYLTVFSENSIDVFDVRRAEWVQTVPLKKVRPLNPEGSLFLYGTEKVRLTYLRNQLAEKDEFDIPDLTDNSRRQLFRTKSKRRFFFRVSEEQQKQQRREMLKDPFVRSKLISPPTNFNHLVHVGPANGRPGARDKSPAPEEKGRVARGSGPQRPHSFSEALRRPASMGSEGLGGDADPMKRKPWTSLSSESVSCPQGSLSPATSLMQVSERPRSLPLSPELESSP
Chain of Receptor-type tyrosine-protein kinase FLT3 (Homo sapiens), P36888 [UNDEFINED MUTATION] (P36888 whole entry, looked up, change not shown): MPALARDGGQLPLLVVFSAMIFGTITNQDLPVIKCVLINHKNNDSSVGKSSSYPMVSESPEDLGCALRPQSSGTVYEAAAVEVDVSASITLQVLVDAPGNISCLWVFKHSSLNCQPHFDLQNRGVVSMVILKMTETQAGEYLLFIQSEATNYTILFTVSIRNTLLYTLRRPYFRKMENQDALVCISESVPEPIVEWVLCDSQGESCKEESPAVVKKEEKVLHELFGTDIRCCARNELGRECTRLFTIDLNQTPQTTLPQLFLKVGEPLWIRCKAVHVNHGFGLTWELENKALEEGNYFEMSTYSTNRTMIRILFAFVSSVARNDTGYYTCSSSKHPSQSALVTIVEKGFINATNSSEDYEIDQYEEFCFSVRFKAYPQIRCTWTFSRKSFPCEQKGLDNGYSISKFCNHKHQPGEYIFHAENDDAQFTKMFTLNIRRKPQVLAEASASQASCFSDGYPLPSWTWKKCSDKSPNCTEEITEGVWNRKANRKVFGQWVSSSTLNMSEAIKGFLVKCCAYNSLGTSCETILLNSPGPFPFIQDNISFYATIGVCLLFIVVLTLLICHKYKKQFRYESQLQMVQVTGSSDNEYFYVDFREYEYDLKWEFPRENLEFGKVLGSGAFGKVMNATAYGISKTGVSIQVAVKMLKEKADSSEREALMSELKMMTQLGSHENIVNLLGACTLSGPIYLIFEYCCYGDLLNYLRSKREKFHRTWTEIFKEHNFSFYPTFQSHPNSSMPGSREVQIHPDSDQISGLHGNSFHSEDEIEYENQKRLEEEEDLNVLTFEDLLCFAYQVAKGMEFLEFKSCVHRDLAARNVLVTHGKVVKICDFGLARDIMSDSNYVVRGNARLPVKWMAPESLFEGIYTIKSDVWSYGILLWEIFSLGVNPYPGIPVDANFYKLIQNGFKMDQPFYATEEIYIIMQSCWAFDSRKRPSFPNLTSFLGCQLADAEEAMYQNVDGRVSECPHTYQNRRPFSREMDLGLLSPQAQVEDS
Chain of Receptor tyrosine-protein kinase erbB-4 (Q15303 whole entry): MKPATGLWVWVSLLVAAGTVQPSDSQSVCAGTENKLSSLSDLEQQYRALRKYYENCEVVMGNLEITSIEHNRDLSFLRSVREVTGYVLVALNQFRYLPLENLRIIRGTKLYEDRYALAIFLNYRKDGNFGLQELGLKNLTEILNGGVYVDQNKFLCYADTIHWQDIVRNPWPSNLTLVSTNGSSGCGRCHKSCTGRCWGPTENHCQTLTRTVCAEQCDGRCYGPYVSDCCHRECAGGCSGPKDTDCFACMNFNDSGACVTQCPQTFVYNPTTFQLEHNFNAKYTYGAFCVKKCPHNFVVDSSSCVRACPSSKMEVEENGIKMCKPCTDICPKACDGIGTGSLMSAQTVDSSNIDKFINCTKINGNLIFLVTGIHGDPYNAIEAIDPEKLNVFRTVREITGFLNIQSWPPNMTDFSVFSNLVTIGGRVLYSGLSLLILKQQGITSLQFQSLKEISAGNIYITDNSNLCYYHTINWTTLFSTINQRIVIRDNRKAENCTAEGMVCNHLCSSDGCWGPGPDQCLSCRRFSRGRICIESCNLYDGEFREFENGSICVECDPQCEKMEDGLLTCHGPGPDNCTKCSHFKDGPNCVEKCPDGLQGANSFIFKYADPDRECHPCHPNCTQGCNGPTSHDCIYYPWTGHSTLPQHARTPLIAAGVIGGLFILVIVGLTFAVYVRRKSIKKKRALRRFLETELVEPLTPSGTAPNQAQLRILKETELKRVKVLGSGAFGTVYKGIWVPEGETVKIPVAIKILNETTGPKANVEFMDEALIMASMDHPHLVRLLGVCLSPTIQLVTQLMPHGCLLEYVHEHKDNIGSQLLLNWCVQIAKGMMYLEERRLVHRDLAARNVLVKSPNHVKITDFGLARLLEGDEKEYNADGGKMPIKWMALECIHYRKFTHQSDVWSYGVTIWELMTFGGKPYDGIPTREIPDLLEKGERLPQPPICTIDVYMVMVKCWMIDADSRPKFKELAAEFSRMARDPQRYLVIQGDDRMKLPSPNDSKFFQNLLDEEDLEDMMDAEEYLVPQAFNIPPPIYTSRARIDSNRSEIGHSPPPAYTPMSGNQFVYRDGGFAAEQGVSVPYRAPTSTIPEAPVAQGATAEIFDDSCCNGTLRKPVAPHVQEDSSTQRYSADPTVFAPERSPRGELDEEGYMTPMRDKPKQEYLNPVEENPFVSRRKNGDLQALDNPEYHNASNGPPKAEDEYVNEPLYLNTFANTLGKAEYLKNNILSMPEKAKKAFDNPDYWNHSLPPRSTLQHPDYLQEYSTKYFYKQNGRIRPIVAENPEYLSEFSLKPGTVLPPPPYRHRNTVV
Chain of RAC-beta serine/threonine-protein kinase (Homo sapiens) (P31751 whole entry): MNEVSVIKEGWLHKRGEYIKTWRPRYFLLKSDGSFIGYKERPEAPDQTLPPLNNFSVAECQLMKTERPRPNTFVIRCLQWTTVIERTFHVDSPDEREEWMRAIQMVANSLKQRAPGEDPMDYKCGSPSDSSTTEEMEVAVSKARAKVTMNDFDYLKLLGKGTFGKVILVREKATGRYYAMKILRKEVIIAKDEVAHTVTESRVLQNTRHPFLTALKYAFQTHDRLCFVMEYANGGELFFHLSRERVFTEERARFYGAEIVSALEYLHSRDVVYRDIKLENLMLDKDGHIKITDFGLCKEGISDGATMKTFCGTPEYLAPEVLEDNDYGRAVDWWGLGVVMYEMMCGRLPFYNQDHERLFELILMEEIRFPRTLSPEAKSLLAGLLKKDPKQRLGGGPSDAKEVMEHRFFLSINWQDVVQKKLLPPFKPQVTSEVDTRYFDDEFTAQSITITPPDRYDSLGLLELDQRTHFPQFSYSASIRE

For `CNC(=O)Nc1ccc(-c2nc(N3CC4CCC(C3)O4)c3cnn(C4CCC5(CC4)OCCO5)c3n2)cc1`, the % of inhibition in [1] came out at 3%.
`CN(C)CCOc1ccc(-c2nc(-c3ccncc3)c(-c3ccc4c(c3)CC/C4=N\O)[nH]2)cc1`: the % of control in assay [2] was 100%; in assay [3], 25%.
Regarding `CCc1ccccc1C(=O)Nc1n[nH]c2c(C)c(F)c(C3C(C#N)=C(C)N(C)C(C)=C3C#N)cc12` [BAY-3827], in assay [4], the % of control worked out at 12%.
On to `CC[C@@H]1[C@H](F)C(=O)N[C@@H]1COc1nccc2cc(C(N)=O)c(OC)cc12` [ZIMLOVISERTIB], for which the % of inhibition in assay [5] (at 0.01 µM) was -10.8%; in assay [5] (at 0.04 µM), 0.7%; in assay [5] (at 0.2 µM), 12.7%; in assay [5] (at 1 µM), 37.8%; in assay [5] (at 5 µM), 78.5%.
`CCN(CC)CCCCNc1ncc2cc(-c3cc(OC)cc(OC)c3)c(NC(=O)NC(C)(C)C)nc2n1` returned a % of control in assay [6] of 100%.
In the case of `O[C@H]1CC[C@H](Nc2ncc3nc(Nc4c(F)cc(F)cc4F)n([C@H]4CCOC4)c3n2)CC1`, the figures for the % of control in assay [7], in assay [8] and in assay [9] were 100%, 56% and 100%, respectively.
